Structures are written as SMILES. Activity calls are given as the source filed them. A value given as a limit tells only on which side of the number the result lay.

One assay has as its system HEK293. Description: cells. It counts as functional, cell-based. Particulars: Homo sapiens.
Assay [1] has as its target T1, Nuclear receptor subfamily 0 group B member 1 (Homo sapiens, UniProt P51843).
T1 sequence (P51843 whole entry): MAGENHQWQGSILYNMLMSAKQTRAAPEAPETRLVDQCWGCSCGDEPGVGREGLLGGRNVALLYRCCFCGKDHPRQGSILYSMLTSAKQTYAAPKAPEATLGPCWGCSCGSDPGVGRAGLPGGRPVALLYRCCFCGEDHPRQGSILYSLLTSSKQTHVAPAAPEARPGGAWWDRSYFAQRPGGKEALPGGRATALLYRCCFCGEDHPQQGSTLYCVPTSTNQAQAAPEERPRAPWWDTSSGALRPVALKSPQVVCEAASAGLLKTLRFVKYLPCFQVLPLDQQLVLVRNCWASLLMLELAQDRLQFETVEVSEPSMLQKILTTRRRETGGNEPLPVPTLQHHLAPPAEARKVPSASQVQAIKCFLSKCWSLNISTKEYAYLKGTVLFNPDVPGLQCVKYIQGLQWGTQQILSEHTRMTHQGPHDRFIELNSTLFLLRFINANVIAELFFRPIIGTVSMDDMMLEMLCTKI
As to the kind of experiment: Luminescence-based cell-based high throughput dose response assay for inhibitors of the orphan nuclear receptor subfamily 0, group B, member 1 (DAX1; NR0B1). [Related pubchem assays (depositor defined):AID504766, AID504790]. It is filed as functional.

Assay [2] addresses Beta-2 adrenergic receptor (Homo sapiens, UniProt P07550). Description: ADRB2 activation measured by internalization – cell-based, FAP fluorogen, flow cytometry, cherry pick 1, dose response (AID 588763). It is filed as functional. Background: A flow cytometer gives signals particle by particle.
Assay [3] deals with T2, Oxysterols receptor LXR-beta (Homo sapiens, UniProt P55055).
T2 sequence (P55055 whole entry): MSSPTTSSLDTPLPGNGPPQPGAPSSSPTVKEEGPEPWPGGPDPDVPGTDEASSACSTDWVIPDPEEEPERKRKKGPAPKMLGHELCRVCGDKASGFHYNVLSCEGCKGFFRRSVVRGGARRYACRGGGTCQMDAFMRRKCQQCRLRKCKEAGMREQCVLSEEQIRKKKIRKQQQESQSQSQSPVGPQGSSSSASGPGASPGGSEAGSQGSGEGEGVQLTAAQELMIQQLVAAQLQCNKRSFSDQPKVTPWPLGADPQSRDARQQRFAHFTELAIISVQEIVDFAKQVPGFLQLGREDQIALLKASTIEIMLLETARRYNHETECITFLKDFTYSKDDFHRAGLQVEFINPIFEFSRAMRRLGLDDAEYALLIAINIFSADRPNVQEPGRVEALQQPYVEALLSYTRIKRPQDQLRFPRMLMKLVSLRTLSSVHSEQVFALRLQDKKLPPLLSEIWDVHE
It counts as functional, cell-based.

Assay [4] can be described thus: cells.
Assay [5] concerns the target T3, Short transient receptor potential channel 4 (Mus musculus, UniProt Q9QUQ5).
T3 sequence (Q9QUQ5 whole entry): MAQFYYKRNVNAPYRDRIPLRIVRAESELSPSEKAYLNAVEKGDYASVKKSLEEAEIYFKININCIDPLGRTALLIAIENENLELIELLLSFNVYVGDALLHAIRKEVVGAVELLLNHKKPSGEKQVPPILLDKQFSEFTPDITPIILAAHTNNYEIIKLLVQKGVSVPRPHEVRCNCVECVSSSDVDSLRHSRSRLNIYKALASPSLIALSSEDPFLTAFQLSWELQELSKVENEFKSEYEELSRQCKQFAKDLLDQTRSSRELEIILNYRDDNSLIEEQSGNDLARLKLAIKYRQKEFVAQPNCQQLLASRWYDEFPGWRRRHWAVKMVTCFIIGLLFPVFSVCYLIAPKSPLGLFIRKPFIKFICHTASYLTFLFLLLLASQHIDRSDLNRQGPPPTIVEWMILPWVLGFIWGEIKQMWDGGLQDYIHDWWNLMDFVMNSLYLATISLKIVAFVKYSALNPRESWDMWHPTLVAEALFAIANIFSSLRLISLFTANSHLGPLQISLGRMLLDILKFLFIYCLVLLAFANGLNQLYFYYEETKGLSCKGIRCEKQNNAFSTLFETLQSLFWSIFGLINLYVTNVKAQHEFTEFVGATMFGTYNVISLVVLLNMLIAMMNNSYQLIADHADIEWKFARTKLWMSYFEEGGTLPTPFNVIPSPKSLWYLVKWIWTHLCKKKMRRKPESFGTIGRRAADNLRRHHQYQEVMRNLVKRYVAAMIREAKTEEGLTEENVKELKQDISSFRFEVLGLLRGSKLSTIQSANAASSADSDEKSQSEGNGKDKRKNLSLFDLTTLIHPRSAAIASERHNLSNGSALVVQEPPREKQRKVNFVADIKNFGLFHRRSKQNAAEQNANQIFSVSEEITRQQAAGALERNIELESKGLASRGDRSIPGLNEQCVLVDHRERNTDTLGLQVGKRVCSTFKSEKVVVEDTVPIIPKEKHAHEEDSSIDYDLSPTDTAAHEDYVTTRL
Description: calcium entry via TRPC4 opening agents – cell-based, HEK293 TRPC4/mu-opioid, Fluo-4 calcium, dose response (AID 434937). It is filed as functional.

The test system of another assay is HeLa. As to the kind of experiment: ATP-based viability loss in HeLa cells – cell-based, CellTiter-Glo luminescence, cherry-pick samples, cytotoxicity control for MITF activator project, dose response (AID 540259). It is filed as functional. The conditions noted are these: Homo sapiens. For orientation: Cellular ATP, detected with luciferase, serves as a proxy for viable cell number.

The target of assay [6] is T3, Short transient receptor potential channel 4. As to the kind of experiment: block of DAMGO-driven TRPC4 calcium entry – cell-based, HEK293 TRPC4/mu-opioid, Fluo-4 calcium, dose response (AID 434942).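 Also: potency of inhibitors blocking the TRPC4 calcium response.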 It counts as functional.
Assay [7] can be described thus: Luminescence Cell-Based Dose Response HTS to Identify Activators of Luciferase Translation or Activity in H4 […] Cells. [Related pubchem assays: 1829 (Project Summary), 1814 (Primary HTS)]. It is filed as functional.
The test system of another assay is H4. As to the kind of experiment: Luminescence Cell-Based Dose Response HTS to Identify Activators of 5'UTR Stem-Loop Driven Prion Protein mRNA Translation in H4 Neuroglioblastoma Cells. [Related pubchem assays: 1829 (Project Summary), 1814 (Primary HTS)]. It is filed as functional. The conditions noted are these: Homo sapiens.
A short description of assay [8]: Luminescence Cell-Based Dose Confirmation to Identify Activators of 5'UTR Stem-Loop Driven Alpha-Synuclein mRNA Translation in H4 Neuroglioblastoma Cells. [Related pubchem assays: 1829 (Project Summary), 1814 (Primary HTS)]. It is filed as functional.
Assay [9] in a line: Luminescence Cell-Based Dose Response to Identify Activators of Luciferase Translation or Activity in H4-C Neuroglioblastoma Cells. [Related pubchem assays: 1829 (Project Summary), 1814 (Primary HTS)]. It counts as functional.
Assay [10] in a line: Luminescence Cell-Based Dose Response to Identify Activators of 5'UTR Stem-Loop Driven Prion Protein mRNA Translation in H4-C Neuroglioblastoma Cells. [Related pubchem assays: 1829 (Project Summary), 1814 (Primary HTS)]. It counts as functional.
Assay [11] can be described thus: viability of uninfected HEp-2 cells – cell-based, HTS, cytotoxicity control for RSV inhibitor project, dose response (AID 2410). The conditions noted are these: human respiratory syncytial virus. It counts as functional.
The test system of assay [12] is Vero. Description: cells. It counts as functional. The conditions noted are these: Chlorocebus sabaeus.
Assay [13] in a line: cells. This is another data set of the same source.
Assay [14] concerns Vero. Description: cells. It counts as functional, cell-based. The conditions noted are these: Chlorocebus sabaeus.
In another assay the target is T4, Hexokinase-1 (Homo sapiens, UniProt P19367).
T4 sequence (P19367 whole entry): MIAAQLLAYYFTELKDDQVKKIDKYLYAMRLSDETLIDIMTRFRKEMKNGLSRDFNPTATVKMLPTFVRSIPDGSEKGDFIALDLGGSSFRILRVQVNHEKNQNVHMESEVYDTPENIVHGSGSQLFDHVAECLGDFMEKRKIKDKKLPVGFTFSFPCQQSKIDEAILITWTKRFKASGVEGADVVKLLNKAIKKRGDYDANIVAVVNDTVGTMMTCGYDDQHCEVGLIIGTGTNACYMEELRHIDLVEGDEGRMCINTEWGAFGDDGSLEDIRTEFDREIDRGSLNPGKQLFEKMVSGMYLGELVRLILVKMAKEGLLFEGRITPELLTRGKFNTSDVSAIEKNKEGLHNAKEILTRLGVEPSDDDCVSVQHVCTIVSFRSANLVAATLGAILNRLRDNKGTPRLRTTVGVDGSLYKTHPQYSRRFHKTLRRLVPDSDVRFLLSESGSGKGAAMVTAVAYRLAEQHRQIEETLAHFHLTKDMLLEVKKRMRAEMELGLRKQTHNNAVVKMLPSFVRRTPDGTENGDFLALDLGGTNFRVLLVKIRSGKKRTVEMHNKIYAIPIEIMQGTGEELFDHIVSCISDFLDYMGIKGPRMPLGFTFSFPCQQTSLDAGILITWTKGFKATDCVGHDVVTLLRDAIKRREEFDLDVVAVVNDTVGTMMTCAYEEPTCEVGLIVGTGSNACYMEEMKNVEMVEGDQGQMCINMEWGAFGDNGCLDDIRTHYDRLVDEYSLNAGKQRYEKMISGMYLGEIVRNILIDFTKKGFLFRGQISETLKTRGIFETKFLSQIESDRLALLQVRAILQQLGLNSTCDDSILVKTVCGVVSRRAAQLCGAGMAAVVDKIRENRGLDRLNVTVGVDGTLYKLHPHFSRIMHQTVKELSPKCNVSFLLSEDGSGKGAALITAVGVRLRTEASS
Description: hexokinase 1 activity inhibitors, potency – biochemical, set 2, resazurin fluorescence coupled readout, selectivity assay for HKDC1 inhibitor project, SAR follow-up (AID 588356). It is filed as functional. Background: Alamar Blue is a resazurin reagent that responds to reducing activity.

A further assay deals with T5, Hexokinase HKDC1 (Homo sapiens, UniProt Q2TB90).
T5 sequence (Q2TB90 whole entry): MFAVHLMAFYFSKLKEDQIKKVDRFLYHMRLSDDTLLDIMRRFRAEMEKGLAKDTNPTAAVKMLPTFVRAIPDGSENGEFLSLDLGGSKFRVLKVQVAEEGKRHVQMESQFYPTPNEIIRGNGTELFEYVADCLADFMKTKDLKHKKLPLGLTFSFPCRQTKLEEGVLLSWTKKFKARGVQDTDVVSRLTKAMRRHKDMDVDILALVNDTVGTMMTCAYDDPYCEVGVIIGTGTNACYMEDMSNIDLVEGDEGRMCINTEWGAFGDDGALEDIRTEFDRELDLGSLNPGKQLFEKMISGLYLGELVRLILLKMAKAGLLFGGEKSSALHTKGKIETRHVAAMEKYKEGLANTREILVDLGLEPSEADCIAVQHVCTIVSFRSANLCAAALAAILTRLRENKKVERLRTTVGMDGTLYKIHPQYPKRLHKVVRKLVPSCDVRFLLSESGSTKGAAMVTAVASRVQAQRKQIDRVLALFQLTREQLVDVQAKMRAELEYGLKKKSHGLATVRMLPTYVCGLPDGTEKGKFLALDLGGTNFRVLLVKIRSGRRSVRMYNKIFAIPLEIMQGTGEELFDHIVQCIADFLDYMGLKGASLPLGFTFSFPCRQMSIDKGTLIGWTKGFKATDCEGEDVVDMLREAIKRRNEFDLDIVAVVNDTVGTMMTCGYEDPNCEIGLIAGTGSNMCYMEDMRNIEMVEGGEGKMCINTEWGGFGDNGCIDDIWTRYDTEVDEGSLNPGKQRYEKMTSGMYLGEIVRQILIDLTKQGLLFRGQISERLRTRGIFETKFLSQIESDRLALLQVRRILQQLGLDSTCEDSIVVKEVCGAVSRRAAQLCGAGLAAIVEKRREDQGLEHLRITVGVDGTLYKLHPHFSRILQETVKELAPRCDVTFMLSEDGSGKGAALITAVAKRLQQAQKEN
As to the kind of experiment: analog inhibition of human HKDC1 activity – biochemical, set 2, SAR follow-up (AID 588355). It is filed as functional.

Assay [15] concerns the target Dual specificity tyrosine-phosphorylation-regulated kinase 1A (Rattus norvegicus, UniProt Q63470). It counts as biochemical, Homo sapiens.

Sequence of Beta-2 adrenergic receptor (P07550 whole entry): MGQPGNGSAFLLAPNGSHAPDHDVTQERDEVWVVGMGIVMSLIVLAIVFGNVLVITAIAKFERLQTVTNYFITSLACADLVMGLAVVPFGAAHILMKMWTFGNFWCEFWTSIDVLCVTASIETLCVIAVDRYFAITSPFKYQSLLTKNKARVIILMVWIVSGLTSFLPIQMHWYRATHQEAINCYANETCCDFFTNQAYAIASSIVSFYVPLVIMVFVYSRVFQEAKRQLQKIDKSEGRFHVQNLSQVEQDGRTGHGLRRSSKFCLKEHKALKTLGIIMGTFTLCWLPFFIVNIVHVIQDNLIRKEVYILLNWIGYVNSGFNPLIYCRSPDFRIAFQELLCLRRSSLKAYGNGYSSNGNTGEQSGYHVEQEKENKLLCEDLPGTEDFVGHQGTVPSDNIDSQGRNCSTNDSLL

As to `O=c1cc(-c2ccccc2)oc2ccc(O)cc12` [6-HYDROXYFLAVONE], the IC50 (with HEK293; in [1]) was > 67.6 µM (inactive) throughout.
Regarding `Cn1c(=N)n(CC(=O)c2ccc(Br)cc2)c2ccccc21`, the EC50 – broadly, the concentration needed to bring the measured effect to its halfway point – was 15.6 µM (inactive) in assay [2], > 67.5 µM (inactive) in [3] and > 67.5 µM (inactive) in the assay “cells [4]”.
For `CN(C)C(CNC(=O)c1cc2ccccc2oc1=O)c1ccccc1` (stereo not given), the values for the EC50 in [5] and in assay [6] were 0.299 µM (active) and 0.149 µM (active), respectively. Besides, the AC50 (usually the concentration giving half of the maximal activity seen) in the assay on HeLa was 240 µM (active).
In the case of `COc1ccccc1OCc1cc(-c2ccccc2)no1`, in the assay with HeLa, the AC50 is 48 µM (active).
For `CC(C)c1cc(C(=O)NCCc2ccccc2)no1`, the EC50 was < 0.1 µM (inconclusive) in assay [7]; 7.28 µM (active) in the assay with H4; 1.06 µM (active) in [8]; 0.375 µM (active) in assay [9]; 1.54 µM (active) in [10]. Moreover, the IC50 (with HEK293; in assay [1]) was > 67.5 µM (inactive) in each case.
Regarding `COc1cccc(NC(=O)[C@H](Cc2c[nH]c3ccccc23)NC(=O)[C@@H]2Cc3ccccc3CN2)c1`, the CC50 (as a rule, the concentration at which the toxic effect on the cells reaches its halfway point) in assay [11] was 17.1 µM (active); with Vero [12], > 25 µM (active). Also, the IC50 (in general, the concentration needed to halve the response being measured) is 7.96 µM (active) in the assay “cells [13]” and 9.61 µM (active) with Vero [14].
Turning to `Cc1ccccc1N1C(=O)c2ccccc2C1Nc1ccc(F)cc1` (stereo not given), the IC50 on Hexokinase-1 and at Hexokinase HKDC1 was > 80 µM (inactive) throughout.
Take `COc1ccc(O)c(-c2cc(-c3ccccc3Cl)n[nH]2)c1`: the AC50 in [15] was 2.77 µM (active).
On to `O=c1c2cc(F)ccc2nc(/C=C/c2cccnc2)n1Cc1ccccc1`, for which the IC50 on Hexokinase-1 and at Hexokinase HKDC1 was > 80 µM (inactive) throughout.

Source of the values: ChEMBL document CHEMBL1201862, “PubChem BioAssay data set” (2004).
